Our source for the IC50 and EC50 values is patent US9315505B2, “Heterocyclic compounds and uses thereof” (INTELLIKINE LLC, priority 2009, dated 2016).

Each structure is given as a SMILES string. Some results are limits rather than exact numbers.

In one test the target is T1, PI3K δ (Homo sapiens, UniProt O00329).
T1 construct: purchased Upstate
Put plainly: In vitro IC50, PI3K δ (p110δ/p85α inhibition assay). In kind it is biochemical. The following applies: in vitro kinase assay; read-out: IC50(nM) PI3K δ. The essentials: (§1)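 Lipid kinase reactions ran with phosphatidylinositol (100 μg/ml) in HEPES pH 7.4/MgCl2 and γ-32P-ATP at 10 or 100 μM for 5 min at room temperature, with 2% DMSO; products were separated by TLC and quantified by phosphorimager. A membrane capture format or HTRF (10 uM PIP2, 10 uM ATP, 1 h) were alternatives.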

The next test addresses T2, PI3K γ (Homo sapiens, UniProt P48736).
T2 construct: purchased Sigma
Put plainly: In vitro IC50, PI3K γ (p110γ inhibition assay). The following applies: in vitro kinase assay. The test is classed as biochemical. In outline:
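Recombinant p110γ assayed with phosphatidylinositol (100 μg/ml) in 25 mM HEPES pH 7.4, 10 mM MgCl2, 2% DMSO; γ-32P-ATP at 10 or 100 μM, 5 min at room temperature, lipid product resolved by TLC and phosphorimaged. IC50 from 10–12 two-fold inhibitor dilutions, top typically 200 μM.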

A further test concerns the target T3, PI3K α (Homo sapiens, UniProt P42336).
T3 construct: purchased Upstate
Put plainly: In vitro IC50, PI3K α (p110α/p85α inhibition assay). In kind it is biochemical. The following applies: in vitro kinase assay; read-out: IC50(nM) PI3K α. The essentials: as §1

The subject of a further test is Balb/c splenic B cells. Put plainly: B cell activation and proliferation assay (Alamar Blue). The test is classed as cell-based. The conditions noted are these: Mus musculus, read-out: B cell proliferation EC50. As for the experimental part: The ability of one or more subject compounds to inhibit B cell activation and proliferation is determined according to standard procedures known in the art. For example, an in vitro cellular proliferation assay is established that measures the metabolic activity of live cells. The assay is performed in a 96 well microtiter plate using Alamar Blue reduction. Balb/c splenic B cells are purified over a Ficoll-Paque™ PLUS gradient followed by magnetic cell separation using a MACS B cell Isolation Kit (Miletenyi). Cells are plated in 90 ul at 50,000 cells/well in B Cell Media (RPMI+10% FBS+Penn/Strep+50 uM bME+5 mM HEPES). A compound disclosed herein is diluted in B Cell Media and added in a 10 ul volume. Plates are incubated for 30 min at 37 C and 5% CO2 (0.2% DMSO final concentration). A 50 ul B cell stimulation cocktail is then added containing either 10 ug/ml LPS or 5 ug/ml F(ab′)2 Donkey anti-mouse IgM plus 2 ng/ml recombinant mouse IL4 in B Cell Media. Plates are incubated for 72 hours at 37° C. and 5% CO2. A volume of 15 uL of Alamar Blue reagent is added to each well and plates are incubated for 5 hours at 37 C and 5% CO2. Alamar Blue fluoresce is read at 560Ex/590Em, and IC50 or EC50 values are calculated using GraphPad Prism 5.
(In general: Resazurin is reduced to fluorescent resorufin, in cell work by metabolically active cells.)

T2 sequence (P48736 whole entry): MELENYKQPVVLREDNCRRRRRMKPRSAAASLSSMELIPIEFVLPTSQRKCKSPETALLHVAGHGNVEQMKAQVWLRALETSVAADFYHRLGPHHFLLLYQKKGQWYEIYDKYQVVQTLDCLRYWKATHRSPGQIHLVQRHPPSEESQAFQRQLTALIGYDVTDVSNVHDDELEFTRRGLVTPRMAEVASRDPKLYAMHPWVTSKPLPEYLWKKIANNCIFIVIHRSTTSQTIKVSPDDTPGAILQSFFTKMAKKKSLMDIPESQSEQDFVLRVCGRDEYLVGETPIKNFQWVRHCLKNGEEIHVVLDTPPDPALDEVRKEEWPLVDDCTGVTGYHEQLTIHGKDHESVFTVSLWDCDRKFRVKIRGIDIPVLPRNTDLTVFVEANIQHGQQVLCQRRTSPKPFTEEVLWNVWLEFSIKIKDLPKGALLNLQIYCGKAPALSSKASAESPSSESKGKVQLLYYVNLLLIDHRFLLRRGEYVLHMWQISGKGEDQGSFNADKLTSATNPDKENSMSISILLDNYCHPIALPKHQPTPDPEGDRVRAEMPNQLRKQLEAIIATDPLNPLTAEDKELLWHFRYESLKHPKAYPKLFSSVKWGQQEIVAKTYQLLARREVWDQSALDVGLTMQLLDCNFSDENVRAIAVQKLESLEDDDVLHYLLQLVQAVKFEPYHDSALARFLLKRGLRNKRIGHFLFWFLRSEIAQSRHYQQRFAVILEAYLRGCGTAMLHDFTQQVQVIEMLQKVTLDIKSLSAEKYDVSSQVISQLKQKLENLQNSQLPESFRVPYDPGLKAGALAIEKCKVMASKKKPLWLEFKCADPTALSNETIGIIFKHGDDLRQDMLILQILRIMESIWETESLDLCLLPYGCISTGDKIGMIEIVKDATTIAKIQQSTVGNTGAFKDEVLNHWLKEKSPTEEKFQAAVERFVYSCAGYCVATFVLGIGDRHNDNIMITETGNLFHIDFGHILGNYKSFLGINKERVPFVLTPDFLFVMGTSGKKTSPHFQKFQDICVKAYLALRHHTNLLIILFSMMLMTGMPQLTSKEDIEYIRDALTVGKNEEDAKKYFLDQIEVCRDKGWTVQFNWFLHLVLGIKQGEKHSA
T3 sequence (P42336 whole entry): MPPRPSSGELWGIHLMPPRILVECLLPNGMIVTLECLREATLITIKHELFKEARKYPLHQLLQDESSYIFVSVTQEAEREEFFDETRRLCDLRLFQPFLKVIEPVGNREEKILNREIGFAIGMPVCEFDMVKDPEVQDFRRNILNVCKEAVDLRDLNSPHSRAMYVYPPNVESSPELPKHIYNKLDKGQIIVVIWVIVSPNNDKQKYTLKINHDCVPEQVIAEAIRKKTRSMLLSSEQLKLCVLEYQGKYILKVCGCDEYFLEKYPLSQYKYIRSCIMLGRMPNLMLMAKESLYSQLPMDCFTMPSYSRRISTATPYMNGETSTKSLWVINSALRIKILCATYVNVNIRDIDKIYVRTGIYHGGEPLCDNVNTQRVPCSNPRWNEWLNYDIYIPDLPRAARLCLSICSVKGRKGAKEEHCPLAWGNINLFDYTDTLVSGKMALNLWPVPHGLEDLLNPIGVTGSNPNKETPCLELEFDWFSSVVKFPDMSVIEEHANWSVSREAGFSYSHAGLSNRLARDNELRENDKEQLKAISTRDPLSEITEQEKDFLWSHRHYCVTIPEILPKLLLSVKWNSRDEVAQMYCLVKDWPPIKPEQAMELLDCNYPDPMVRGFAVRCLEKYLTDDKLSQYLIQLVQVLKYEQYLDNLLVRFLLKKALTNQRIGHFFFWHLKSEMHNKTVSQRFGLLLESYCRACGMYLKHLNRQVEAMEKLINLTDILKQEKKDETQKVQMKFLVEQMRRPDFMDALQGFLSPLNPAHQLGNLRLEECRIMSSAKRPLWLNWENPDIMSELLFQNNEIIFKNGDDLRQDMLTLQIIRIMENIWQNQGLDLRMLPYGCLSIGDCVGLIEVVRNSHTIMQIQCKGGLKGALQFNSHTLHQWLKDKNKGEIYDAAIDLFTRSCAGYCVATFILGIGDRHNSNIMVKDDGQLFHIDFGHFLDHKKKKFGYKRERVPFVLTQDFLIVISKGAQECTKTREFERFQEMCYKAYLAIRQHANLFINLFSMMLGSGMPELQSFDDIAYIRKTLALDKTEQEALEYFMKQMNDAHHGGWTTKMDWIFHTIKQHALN
T3 sequence (P27986 whole entry partner): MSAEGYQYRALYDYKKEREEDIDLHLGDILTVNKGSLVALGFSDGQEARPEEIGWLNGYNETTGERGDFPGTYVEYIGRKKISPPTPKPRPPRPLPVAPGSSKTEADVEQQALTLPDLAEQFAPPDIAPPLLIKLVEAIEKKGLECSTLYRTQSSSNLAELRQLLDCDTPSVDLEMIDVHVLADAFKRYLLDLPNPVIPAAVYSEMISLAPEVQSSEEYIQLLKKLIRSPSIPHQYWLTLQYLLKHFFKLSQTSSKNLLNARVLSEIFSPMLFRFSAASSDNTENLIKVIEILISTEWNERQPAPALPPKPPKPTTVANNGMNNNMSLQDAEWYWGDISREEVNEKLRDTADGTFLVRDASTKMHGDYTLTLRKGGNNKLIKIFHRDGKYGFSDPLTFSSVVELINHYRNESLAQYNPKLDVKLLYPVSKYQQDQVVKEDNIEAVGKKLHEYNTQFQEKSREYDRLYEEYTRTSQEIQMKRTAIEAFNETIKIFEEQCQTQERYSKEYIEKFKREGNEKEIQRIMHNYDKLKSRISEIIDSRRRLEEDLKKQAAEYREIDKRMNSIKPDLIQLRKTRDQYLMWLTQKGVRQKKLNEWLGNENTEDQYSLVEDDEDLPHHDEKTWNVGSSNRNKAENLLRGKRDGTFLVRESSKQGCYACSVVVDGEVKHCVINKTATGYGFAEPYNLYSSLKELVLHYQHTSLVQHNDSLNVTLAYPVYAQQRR
T1 sequence (O00329 whole entry): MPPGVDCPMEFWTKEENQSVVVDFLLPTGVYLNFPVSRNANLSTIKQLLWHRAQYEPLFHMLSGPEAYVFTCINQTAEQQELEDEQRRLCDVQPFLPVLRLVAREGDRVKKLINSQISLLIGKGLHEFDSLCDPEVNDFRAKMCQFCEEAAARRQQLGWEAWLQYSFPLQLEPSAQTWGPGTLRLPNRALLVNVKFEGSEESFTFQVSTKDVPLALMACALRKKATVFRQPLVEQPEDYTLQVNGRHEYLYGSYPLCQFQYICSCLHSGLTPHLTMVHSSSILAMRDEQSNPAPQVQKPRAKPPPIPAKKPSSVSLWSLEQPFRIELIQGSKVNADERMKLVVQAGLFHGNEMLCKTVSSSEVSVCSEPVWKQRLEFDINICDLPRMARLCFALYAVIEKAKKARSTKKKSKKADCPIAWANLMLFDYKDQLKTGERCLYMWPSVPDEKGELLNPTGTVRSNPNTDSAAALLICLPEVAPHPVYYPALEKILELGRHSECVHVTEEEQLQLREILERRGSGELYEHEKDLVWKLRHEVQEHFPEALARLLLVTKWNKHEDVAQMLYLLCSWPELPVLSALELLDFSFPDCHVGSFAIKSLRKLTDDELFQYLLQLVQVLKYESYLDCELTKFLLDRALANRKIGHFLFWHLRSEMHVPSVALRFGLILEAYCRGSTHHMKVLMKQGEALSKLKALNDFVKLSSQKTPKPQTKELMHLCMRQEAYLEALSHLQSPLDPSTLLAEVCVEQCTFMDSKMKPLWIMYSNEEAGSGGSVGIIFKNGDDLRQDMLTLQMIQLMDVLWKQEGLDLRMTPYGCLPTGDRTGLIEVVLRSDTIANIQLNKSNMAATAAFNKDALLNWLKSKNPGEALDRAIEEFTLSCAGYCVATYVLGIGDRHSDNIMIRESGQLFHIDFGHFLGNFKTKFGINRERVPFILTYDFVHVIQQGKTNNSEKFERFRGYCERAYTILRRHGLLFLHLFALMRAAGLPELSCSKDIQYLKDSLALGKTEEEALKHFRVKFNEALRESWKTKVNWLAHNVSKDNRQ
T1 sequence (P27986 whole entry partner): as the sequence (P27986 whole entry partner) above

The IC50 is the concentration that inhibits the measured activity by half. For the compound `Cc1cccc2cc([C@H](C)Nc3ncnc4[nH]cnc34)nc(OC3CCN(S(C)(=O)=O)CC3)c12` [Compound 61], the IC50 is < 1000 nM on PI3K δ, < 10000 nM against PI3K γ and > 10000 nM at PI3K α. Also, the EC50 in the test on Balb/c splenic B cells is < 1000 nM.

As for `C[C@H](Nc1ncnc2[nH]cnc12)c1cc2cccc(Cl)c2c(N2CCOCC2)n1` [Compound 62], the IC50 was < 1000 nM on PI3K δ, < 10000 nM against PI3K γ and > 10000 nM on PI3K α. The EC50 in the test with Balb/c splenic B cells is < 1000 nM.

Regarding `C[C@H](Nc1ncnc2[nH]cnc12)c1cc2cccc(Cl)c2c(N2CCCC2)n1` [Compound 63], the values for the IC50 at PI3K δ, against PI3K γ and at PI3K α were < 100 nM, < 10000 nM and > 10000 nM, respectively. Besides, the EC50 in the test with Balb/c splenic B cells is < 1000 nM.

As to `C[C@H](Nc1ncnc2[nH]cnc12)c1cc2cccc(Cl)c2c(OCCN2CCOCC2)n1` [Compound 65], the IC50 is < 100 nM at PI3K δ, < 1000 nM against PI3K γ and < 10000 nM at PI3K α. Also, the EC50 with Balb/c splenic B cells is < 100 nM.

Turning to `Nc1ncnc2c1c(-c1cn[nH]c1)nn2Cc1cc2cccc(Cl)c2c(N2CCOCC2)n1` [Compound 66], the IC50 is < 100 nM on PI3K δ, < 1000 nM against PI3K γ and < 10000 nM at PI3K α. For the same compound, the EC50 in the test with Balb/c splenic B cells was < 100 nM.

As for `CS(=O)(=O)N1CCN(c2nc(Cn3nc(-c4cn[nH]c4)c4c(N)ncnc43)cc3cccc(Cl)c23)CC1` [Compound 67], the results for the IC50 at PI3K δ, against PI3K γ and at PI3K α were < 100 nM, < 1000 nM and < 10000 nM, respectively. Moreover, the EC50 with Balb/c splenic B cells is < 1000 nM.

Consider `Nc1ncnc2c1c(-c1cn[nH]c1)nn2Cc1cc2cccc(Cl)c2c(N2CCCC2)n1` [Compound 68], for which the IC50 at PI3K δ was < 100 nM; against PI3K γ, < 1000 nM; on PI3K α, < 10000 nM. The EC50 with Balb/c splenic B cells was < 1000 nM.
